What all share (test): biochemical
Holding throughout (design): DiscoveRx KINOMEscan active site-directed competition binding; percent of control kinase bound to immobilised ligand

One test addresses T1, AXL (Homo sapiens, UniProt P30530).
T1 sequence (P30530 1-894): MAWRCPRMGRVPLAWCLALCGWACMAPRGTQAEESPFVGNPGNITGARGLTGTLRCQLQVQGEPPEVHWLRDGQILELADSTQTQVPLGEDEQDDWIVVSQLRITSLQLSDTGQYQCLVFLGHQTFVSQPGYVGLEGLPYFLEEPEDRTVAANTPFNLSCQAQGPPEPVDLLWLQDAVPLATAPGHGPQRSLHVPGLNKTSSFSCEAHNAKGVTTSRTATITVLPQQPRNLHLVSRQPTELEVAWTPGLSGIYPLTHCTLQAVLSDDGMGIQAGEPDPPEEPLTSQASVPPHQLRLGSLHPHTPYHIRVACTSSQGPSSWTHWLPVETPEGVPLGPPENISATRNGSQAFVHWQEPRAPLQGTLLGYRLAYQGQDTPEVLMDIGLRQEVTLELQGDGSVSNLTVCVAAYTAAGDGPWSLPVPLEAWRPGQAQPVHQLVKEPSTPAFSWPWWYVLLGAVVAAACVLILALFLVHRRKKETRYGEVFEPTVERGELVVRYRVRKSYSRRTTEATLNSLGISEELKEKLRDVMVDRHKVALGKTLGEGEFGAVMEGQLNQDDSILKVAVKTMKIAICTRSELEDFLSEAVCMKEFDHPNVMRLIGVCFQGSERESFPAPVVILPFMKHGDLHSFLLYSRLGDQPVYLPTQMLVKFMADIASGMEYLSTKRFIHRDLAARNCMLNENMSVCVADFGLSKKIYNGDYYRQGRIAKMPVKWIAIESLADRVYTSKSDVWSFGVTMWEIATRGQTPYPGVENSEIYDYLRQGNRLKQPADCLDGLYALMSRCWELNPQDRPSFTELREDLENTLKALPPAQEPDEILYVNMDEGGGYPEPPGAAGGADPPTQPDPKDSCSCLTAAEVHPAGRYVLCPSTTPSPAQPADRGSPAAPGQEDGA

Another test addresses CSF1R-autoinhibited (Homo sapiens, UniProt P07333).
For another test, the target named is T2, NEK5 (Homo sapiens, UniProt Q6P3R8).
T2 sequence (Q6P3R8 1-708): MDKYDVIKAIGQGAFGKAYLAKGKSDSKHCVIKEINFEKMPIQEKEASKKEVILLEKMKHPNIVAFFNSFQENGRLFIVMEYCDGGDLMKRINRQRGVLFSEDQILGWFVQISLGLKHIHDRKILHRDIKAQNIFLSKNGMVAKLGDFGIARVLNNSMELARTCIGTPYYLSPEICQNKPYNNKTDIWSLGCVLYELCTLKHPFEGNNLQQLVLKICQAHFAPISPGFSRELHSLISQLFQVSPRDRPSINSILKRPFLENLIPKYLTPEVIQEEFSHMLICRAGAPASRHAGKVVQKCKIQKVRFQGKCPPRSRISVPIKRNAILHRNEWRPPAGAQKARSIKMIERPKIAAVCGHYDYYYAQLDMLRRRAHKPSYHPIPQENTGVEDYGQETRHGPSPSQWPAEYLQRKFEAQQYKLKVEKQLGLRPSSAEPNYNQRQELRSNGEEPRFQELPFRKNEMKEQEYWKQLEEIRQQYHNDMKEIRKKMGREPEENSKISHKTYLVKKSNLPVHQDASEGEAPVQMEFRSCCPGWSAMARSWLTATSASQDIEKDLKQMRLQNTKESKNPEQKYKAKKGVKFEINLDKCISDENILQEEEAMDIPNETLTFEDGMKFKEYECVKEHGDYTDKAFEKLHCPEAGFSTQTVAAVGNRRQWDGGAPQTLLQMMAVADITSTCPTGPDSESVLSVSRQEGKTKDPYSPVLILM

Another test addresses T3, PRKG2 (Homo sapiens, UniProt Q13237).
T3 sequence (Q13237 1-762): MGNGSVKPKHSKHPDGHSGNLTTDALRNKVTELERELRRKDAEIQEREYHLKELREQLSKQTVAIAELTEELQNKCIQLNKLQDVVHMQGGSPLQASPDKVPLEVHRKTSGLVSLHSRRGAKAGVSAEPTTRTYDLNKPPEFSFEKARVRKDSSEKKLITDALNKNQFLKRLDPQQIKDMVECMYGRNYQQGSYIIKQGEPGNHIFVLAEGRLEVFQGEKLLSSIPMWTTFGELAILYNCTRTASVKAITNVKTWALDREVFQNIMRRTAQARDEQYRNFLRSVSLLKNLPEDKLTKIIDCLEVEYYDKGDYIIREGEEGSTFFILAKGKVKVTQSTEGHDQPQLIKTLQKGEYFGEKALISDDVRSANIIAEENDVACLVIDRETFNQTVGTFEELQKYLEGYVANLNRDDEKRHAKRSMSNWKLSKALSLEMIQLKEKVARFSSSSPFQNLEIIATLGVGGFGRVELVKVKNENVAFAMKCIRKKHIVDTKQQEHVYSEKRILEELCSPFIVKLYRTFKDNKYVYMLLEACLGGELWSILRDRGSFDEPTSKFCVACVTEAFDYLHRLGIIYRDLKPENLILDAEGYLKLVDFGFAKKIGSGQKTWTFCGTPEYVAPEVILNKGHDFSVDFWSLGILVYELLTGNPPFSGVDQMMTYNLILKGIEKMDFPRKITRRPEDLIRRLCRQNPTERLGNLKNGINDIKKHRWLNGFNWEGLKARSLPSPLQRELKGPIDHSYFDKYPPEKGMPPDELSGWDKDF

The mark [1] stands for this setting: read-out: Niraparib (MK-4827) / %Ctrl @ 10000nM.
The mark [2] stands for this setting: read-out: Talazoparib (BMN 673) / %Ctrl @ 10000nM.
The mark [3] stands for this setting: read-out: Rucaparib / %Ctrl @ 10000nM, binding competition, % of control.
Setting [4] is: read-out: Olaparib / %Ctrl @ 10000nM.

Read-outs that look alike come from different tables or passages of the source.

CSF1R-autoinhibited, sequence (P07333 whole entry): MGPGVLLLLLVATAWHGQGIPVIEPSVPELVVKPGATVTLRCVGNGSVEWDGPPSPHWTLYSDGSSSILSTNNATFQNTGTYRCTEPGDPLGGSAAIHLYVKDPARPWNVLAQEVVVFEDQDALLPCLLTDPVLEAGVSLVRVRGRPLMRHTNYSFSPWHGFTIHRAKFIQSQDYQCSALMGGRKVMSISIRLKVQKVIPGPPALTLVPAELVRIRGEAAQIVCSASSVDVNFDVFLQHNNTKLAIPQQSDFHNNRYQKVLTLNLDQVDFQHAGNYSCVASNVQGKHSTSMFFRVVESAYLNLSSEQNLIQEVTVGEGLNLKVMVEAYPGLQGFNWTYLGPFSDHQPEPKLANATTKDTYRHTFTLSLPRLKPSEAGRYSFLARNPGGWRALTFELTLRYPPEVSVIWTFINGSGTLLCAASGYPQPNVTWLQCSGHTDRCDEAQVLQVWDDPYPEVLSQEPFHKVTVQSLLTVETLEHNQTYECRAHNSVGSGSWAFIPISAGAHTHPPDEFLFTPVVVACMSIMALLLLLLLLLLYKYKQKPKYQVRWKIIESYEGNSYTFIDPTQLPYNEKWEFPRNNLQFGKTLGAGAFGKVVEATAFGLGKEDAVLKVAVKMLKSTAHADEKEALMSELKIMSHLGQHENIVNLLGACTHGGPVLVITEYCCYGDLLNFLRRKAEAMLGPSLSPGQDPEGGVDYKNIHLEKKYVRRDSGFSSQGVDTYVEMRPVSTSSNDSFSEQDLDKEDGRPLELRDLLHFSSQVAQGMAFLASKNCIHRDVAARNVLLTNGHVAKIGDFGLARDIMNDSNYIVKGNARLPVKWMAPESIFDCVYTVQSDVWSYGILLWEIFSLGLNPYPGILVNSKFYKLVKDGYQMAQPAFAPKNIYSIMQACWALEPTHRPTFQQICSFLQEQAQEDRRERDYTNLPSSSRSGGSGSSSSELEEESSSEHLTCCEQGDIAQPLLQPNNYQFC

For the compound `NC(=O)c1cccc2cn(-c3ccc([C@@H]4CCCNC4)cc3)nc12` [Niraparib], the percent of control binding at 10 µM at AXL (setting [1]) was found to be 59%; on CSF1R-autoinhibited (setting [1]), 81%; on NEK5 (setting [1]) it was 89%; at PRKG2 (setting [1]), 97%.

In the case of `Cn1ncnc1[C@H]1c2n[nH]c(=O)c3cc(F)cc(c23)N[C@@H]1c1ccc(F)cc1` [Talazoparib], the percent of control binding at 10 µM on AXL (setting [2]) was 100%; at CSF1R-autoinhibited (setting [2]), 100%; at NEK5 (setting [2]), 97%; on PRKG2 (setting [2]), 100%.

Regarding `CNCc1ccc(-c2[nH]c3cc(F)cc4c3c2CCNC4=O)cc1` [Rucaparib], the percent of control binding at 10 µM at AXL (setting [3]) is 82%; at CSF1R-autoinhibited (setting [3]) it was 99%; on NEK5 (setting [3]), 87%; at PRKG2 (setting [3]), 60%.

With `O=C(c1cc(Cc2n[nH]c(=O)c3ccccc23)ccc1F)N1CCN(C(=O)C2CC2)CC1` [Olaparib], the percent of control binding at 10 µM was determined as 100% on AXL (setting [4]), 95% at CSF1R-autoinhibited (setting [4]), 96% at NEK5 (setting [4]) and 85% at PRKG2 (setting [4]).

The values are drawn from PMC7026418, “The kinase polypharmacology landscape of clinical PARP inhibitors” (Scientific Reports, 2020).
